Tests used:
NAMECs [1] = test: NanoSight Nanoparticle Tracking Analysis of CM-P4 fractions of NAMEC culture; assay type: cell-based, human; details: CM-P4 fraction, 4 days; PGE2 1 μM
Description: FIG. 1 includes a TEM image and a graph. (A) is a TEM image of the P4 medium fraction of NAMECs treated with GW627368X (GW) for 4 days. Scale bar, 1 μm. (B) is a graph showing the number of particles in the CM-P4 fractions of NAMEC culture counted by using NanoSight Nanoparticle Tracking analysis. Top panel: Quantification of exosome release is shown as the ratio of [P4 GAPDH marker level]/[cell number]. Data are means±SEM (n=3). *P≤0.05. **P≤0.005. Bottom table: Quantification of exosome release is shown as the number of particles of the CM-P4 fractions released per cell measured by nanoparticle tracking analysis.
(§1) The isolated human mammary epithelial stem cells (NAMECs) were cultured in mammary epithelial cell basal medium (250 ml MCDB-170, 250 ml DMEM-F12, 1.2 g sodium bicarbonate, 2.5 μg EGF, 0.25 mg Hydrocortisone, 2.5 mg insulin, 35 mg BPE) with or without containing EP4 antagonist, i.e., GW627368X (GW) at 1 μg/ml, or AH23848 (AH) at 4 μg/ml, for 4 days. The culture medium was supplied with 0.5 μg/ml of GW or 2 μg/ml of AH23848 at the third day of the culturing period. For the induction of EP4 antagonist-induced exosomes from mouse mammary epithelial cells, cells were cultured in a medium containing 10 μg/ml of GW for 4 days.
The culture media were centrifuged at 300 g for 5 min to remove cells (P1), at 2,000 g for 20 min (P2), then at 10,000 g for 30 min (P3) all at 4° C. Dead cells and cell debris were removed at 300 g (P1) and 1200 g (P2). Finally, exosomes (P4) were separated from the supernatant by centrifugation at 110,000 g for 60 min. The P4 exosome pellet was washed once in PBS and then re-suspended in PBS for further application.

NAMEC-R cells = test: NTA of EV release from Ras-transformed NAMEC-R cells; assay type: cell-based; details: CM-P4, 4 days; GW 1 μg/ml; SQ 120 and 240 nM
Description: Vesicles in the P4 fractions were counted using NTA. Data are means±SEM (n=6). ***P≤0.001; (B) The Alix, TSG101, CD63, CD81 and GAPDH exosome markers were measured in the CM-P4 fractions of NAMEC-R cells treated with vehicle (Crl), GW627368X (GW, 1 μg/ml), SQ 29,548 (SQ120/SQ240; 120 nM and 240 nM); (C) The mesenchymal marker N-cadherin, CSC markers and exosome markers were analyzed in the conditioned medium P4 fraction derived from equal numbers of vehicle-treated NAMEC-R cells (Crl), GW-treated NAMEC-R cells (GW, 1 μg/ml GW627368X for 4 days) and SQ 29,548-treated NAMEC-R cells (SQ120/SQ240; 120 nM and 240 nM for 4 days). The longer GAPDH(L) and CD81(L) exposures show the low, but detectable, presence of GAPDH and CD81 in the conditioned medium P4 fraction of vehicle-treated NAMEC-R cells.
We further investigated whether EP4 antagonism and TP receptor antagonism (as GW has partial affinity to the human TP receptor) affected EV release from transformed mammary epithelial stem cells. Four-day conditioned media of vehicle, GW-, or SQ (a TP antagonist)-treated Ras-transformed NAMEC mammary stem cells (NAMEC-R) were collected and subjected to differential ultracentrifugation to isolate EVs released by the cells. The numbers of vesicles in CM-P4 fractions were determined using NTA (FIG. 20, A). EP4 antagonism elicited release of ˜5000 vesicles per NAMEC-R cell. […]

NAMECs [2] = test: Western blot of exosome markers and proteins in CM-P4 fractions of NAMECs; assay type: cell-based, human; details: AH23848 0.4, 2, 4 μg/ml; AH6809 0.8, 4, 8 μg/ml; GW 1 μg/ml
Description: FIG. 2 includes graphs and blots showing analyses of GW-treated NAMEC P4 fractions. CM-P4 GW-treated NAMECs were collected and subjected to (A) NanoSight Nanoparticle Tracking Analysis (NTA) and (B) Dynamic Light Scattering/Zeta Potential Analysis (DLS). […] D: particle diameter. RN: relative number. (C) is a blot showing the amounts of the CD44 stem cell marker and the CD81, CD9, TSG101, Alix, HSP70 and GAPDH exosome markers measured in the indicated CM-P4 fractions and cell lysates. The culture media and cell lysates were collected from the same number of NAMECs treated with vehicle (Crl), GW627368X (GW) or PGE2 (1 μM) for 4 days. (D) is a blot showing the amounts of the GAPDH and CD81 exosome markers and the CD44 stem cell marker measured in the CM-P4 fraction of NAMECs (CD44hi/CD24− stem cells) or CD44lo/CD24+ non-stem cells (HMLE cells) treated with vehicle (Crl) or GW for 2 days. 1×: P4 exosome fraction released by 1×10^6 cells; 2×: P4 exosome fraction released by 2×10^6 cells. […] (E) is a blot showing that the CD44 stem cell marker and GAPDH and CD81 exosome markers were measured in the indicated P4 conditioned medium fractions of NAMECs treated with vehicle (Crl), GW627368X (GW, 1 μg/ml), AH23848 (EP4 antagonist; 0.4, 2, 4 μg/ml), or AH6809 (EP1/2/3 antagonist; 0.8, 4, 8 μg/ml). (F) is a blot showing the HSP70, GAPDH and CD81 exosome markers measured in the indicated CM-P4 of NAMECs, NAMEC-shEP4-1 cells, and NAMEC-shEP4-2 cells treated with vehicle or with doxycycline (Dox, 2 μg/ml) (top panel). Doxyclycline (Dox) induced the production EP4 shRNA in NAMEC-shEP4 cells (bottom panel).
The P4 exosome fractions and cell lysates were collected from NAMECs treated with vehicle (Crl), GW627368X (GW), or PGE2 for 4 days. 1×: P4 exosome fraction released by 2.5×10^5 cells; 5×: P4 exosome fraction released by 12.5×10^5 cells. Hg: Hg-integrin β1, Lg: Lg-integrin β1, H: H-integrin α6, L: L-integrin α6, pg: pg-LRP6, g: g-LRP6, Ng: Ng-LRP6.
as §1
The culture media were centrifuged at 300 g for 5 min to remove cells (P1), at 2,000 g for 20 min (P2), then at 10,000 g for 30 min (P3) all at 4° C. Dead cells and cell debris were removed at 300 g (P1) and 1200 g (P2). […]

Row | Structure (SMILES) | exosome release by exosome markers in CM-P4 fractions (NAMECs [2]) | also measured
1 | CCCCC[C@H](O)/C=C/[C@H]1[C@H](O)CC(=O)[C@@H]1C/C=C\CCCC(=O)O [PGE2, prostaglandin E2] |  | concentration of released membrane vesicles (NAMECs [1]): ~0.5×10^4 particle/cell
2 | O=C(O)CCC/C=C\C[C@@H]1[C@H](CNNC(=O)Nc2ccccc2)[C@H]2CC[C@@H]1O2 [SQ 29,548] |  | vesicles released per cell (NAMEC-R cells): ~1000 vesicles per cell
3 | CC(C)Oc1ccc2c(=O)c3cc(C(=O)O)ccc3oc2c1 [AH6809] | not significantly induced | 
4 | O=C(O)CC/C=C\CC[C@H]1[C@H](N2CCOCC2)C(=O)C[C@H]1OCc1ccc(-c2ccccc2)cc1 [AH23848] | induced in a dose-dependent manner | 
